Here are results for 22 compounds from patent publication US8735406B2, “8-oxodihydropurine derivative” (Dainippon Sumitomo Pharma Co., Ltd., priority 2009, dated 2014).

The structures appear in SMILES notation. Where two headings read alike, the source gives them in different places.

In the test the target is T1, FAAH (Rattus norvegicus, UniProt P97612).
T1 construct: Preparation of Rat Brain Membranes Preparations (FAAH Enzyme Solution); from tissue; host or cells: rat cerebrum (brain membrane preparation)
T1 sequence (P97612 1-579): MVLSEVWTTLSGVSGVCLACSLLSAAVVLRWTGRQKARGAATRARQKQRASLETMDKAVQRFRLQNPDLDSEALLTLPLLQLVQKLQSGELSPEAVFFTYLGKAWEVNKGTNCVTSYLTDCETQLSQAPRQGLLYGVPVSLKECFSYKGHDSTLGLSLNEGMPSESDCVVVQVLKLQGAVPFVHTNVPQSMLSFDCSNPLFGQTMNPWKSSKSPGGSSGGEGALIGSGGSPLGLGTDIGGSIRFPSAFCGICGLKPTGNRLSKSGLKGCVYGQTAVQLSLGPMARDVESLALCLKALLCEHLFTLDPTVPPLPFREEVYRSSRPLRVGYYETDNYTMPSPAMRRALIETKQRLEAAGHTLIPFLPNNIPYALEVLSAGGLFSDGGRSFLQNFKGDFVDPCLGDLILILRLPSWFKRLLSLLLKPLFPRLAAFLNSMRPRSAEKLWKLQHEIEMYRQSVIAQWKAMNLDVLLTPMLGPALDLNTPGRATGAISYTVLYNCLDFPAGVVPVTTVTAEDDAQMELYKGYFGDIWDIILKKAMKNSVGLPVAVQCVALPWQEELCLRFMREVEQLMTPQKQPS
As to the kind of experiment: Determination of FAAH inhibitory activity in rat (rat brain membrane preparations, [3H]-anandamide hydrolysis). The following applies: for inhibition at 0.1 µM: read-out: FAAH Inhibition, Inhibition Rate at 100 nM; for IC50: test substance 0.1 nM to 1 μM, read-out: FAAH Inhibition IC50. Type of test: biochemical. The procedure, abridged: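 Compounds tested from 0.1 nM to 1 μM to derive IC50 against FAAH hydrolysis in rat brain membrane preparations (100 μg/mL). A 10-min 37 °C preincubation was followed by 10 min with [3H]-anandamide (2 nM) mixed with 2 μM unlabelled anandamide. Radioactive ethanolamine was extracted into the water/methanol layer and counted.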

The mark [1] stands for this setting: rat brain membrane preparations, 100 nM test substance.
Setting [2] is: rat brain membrane preparations.

Consider `COc1cccc(-c2ncc3c(n2)n(C)c(=O)n3C(=O)N2CCN(c3ccc(C)cc3)CC2)c1` [Example 138, 2-(3-Methoxyphenyl)-9-methyl-7-{[4-(4-methylphenyl)piperazin-1-yl]carbonyl}-7,9-dihydro-8H-purine-8-one], for which, under setting [1], the inhibition at 0.1 µM was 99%. Under setting [2], the IC50 came to 6 nM.

As for `COc1cccc(-c2ncc3c(n2)n(C)c(=O)n3C(=O)N2CCN(c3cccc(C)c3)CC2)c1` [Example 139, 2-(3-Methoxyphenyl)-9-methyl-7-{[4-(3-methylphenyl)piperazin-1-yl]carbonyl}-7,9-dihydro-8H-purine-8-one], the inhibition at 0.1 µM under setting [1] came to 99%. The IC50 under setting [2] was found to be 6 nM.

On to `COc1cccc(-c2ncc3c(n2)n(C)c(=O)n3C(=O)N2CCN(c3ccccc3)CC2)c1` [Example 140, 2-(3-Methoxyphenyl)-9-methyl-7-[(4-phenylpiperazin-1-yl)carbonyl]-7,9-dihydro-8H-purine-8-one], for which the inhibition at 0.1 µM under setting [1] came out at 99%. The IC50 under setting [2] was 7 nM.

As for `CCOc1ccc(N2CCN(C(=O)n3c(=O)n(C)c4nc(-c5cccc(OC)c5)ncc43)CC2)cc1` [Example 141, 7-{[4-(4-Ethoxyphenyl)piperazin-1-yl]carbonyl}-2-(3-methoxyphenyl)-9-methyl-7,9-dihydro-8H-purine-8-one], the inhibition at 0.1 µM under setting [1] stood at 100%. Further, the IC50 under setting [2] came out at 4 nM.

For the compound `COc1cccc(-c2ncc3c(n2)n(C)c(=O)n3C(=O)N2CCN(c3ccc(Cl)cc3)CC2)c1` [Example 142, 7-{[4-(4-Chlorophenyl)piperazin-1-yl]carbonyl}-2-(3-methoxyphenyl)-9-methyl-7,9-dihydro-8H-purine-8-one], the inhibition at 0.1 µM under setting [1] was determined as 99%. Besides, the IC50 under setting [2] worked out at 5 nM.

Turning to `CN(C)C(=O)n1c(=O)n(C)c2nc(-c3cccnc3)ncc21` [Example 143, N,N,9-Trimethyl-8-oxo-2-(pyridin-3-yl)-8,9-dihydro-7H-purine-7-carboxamide], under setting [1], the inhibition at 0.1 µM turned out to be 100%. Besides, under setting [2], the IC50 amounted to 15 nM.

Consider `CCOc1ccc(N2CCN(C(=O)n3c(=O)n(C)c4nc(-c5cccnc5)ncc43)CC2)cc1` [Example 144, 7-{[4-(4-Ethoxyphenyl)piperazin-1-yl]carbonyl}-9-methyl-2-(pyridin-3-yl)-7,9-dihydro-8H-purine-8-one], for which the inhibition at 0.1 µM under setting [1] was 100%. In addition, under setting [2], the IC50 is less than 1 nM.

Take `CN(CCc1ccc(Cl)cc1)C(=O)n1c(=O)n(C)c2nc(-c3cccnc3)ncc21` [Example 145, N-[2-(4-Chlorophenyl)ethyl]-N,9-dimethyl-8-oxo-2-(pyridin-3-yl)-8,9-dihydro-7H-purine-7-carboxamide]: under setting [1], the inhibition at 0.1 µM amounted to 100%. Moreover, the IC50 under setting [2] is less than 1 nM.

Turning to `CN(CCOc1ccc(Cl)cc1)C(=O)n1c(=O)n(C)c2nc(-c3cccnc3)ncc21` [Example 146, N-[2-(4-Chlorophenoxy)ethyl]-N,9-dimethyl-8-oxo-2-(pyridin-3-yl)-8,9-dihydro-7H-purine-7-carboxamide], under setting [1], the inhibition at 0.1 µM was 99%. For the same compound, the IC50 under setting [2] was less than 1 nM.

On to `Cn1c(=O)n(C(=O)N2CCC(CCc3ccc(Cl)cc3)CC2)c2cnc(-c3cccnc3)nc21` [Example 147, 7-({4-[2-(4-Chlorophenyl)ethyl]piperidin-1-yl}carbonyl)-9-methyl-2-(pyridin-3-yl)-7,9-dihydro-8H-purine-8-one], for which the inhibition at 0.1 µM under setting [1] came to 96%. Under setting [2], the IC50 was less than 1 nM.

In the case of `CN(C)C(=O)n1c(=O)n(C)c2nc(-c3ccncc3)ncc21` [Example 148, N,N,9-Trimethyl-8-oxo-2-(pyridin-4-yl)-8,9-dihydro-7H-purine-7-carboxamide], the inhibition at 0.1 µM under setting [1] was determined as 97%. Moreover, under setting [2], the IC50 was found to be 30 nM.

As to `CCOc1ccc(N2CCN(C(=O)n3c(=O)n(C)c4nc(-c5ccncc5)ncc43)CC2)cc1` [Example 149, 7-{[4-(4-Ethoxyphenyl)piperazin-1-yl]carbonyl}-9-methyl-2-(pyridin-4-yl)-7,9-dihydro-8H-purine-8-one], the inhibition at 0.1 µM under setting [1] was 102%. In addition, under setting [2], the IC50 was less than 1 nM.

Take `CN(CCc1ccc(Cl)cc1)C(=O)n1c(=O)n(C)c2nc(-c3ccncc3)ncc21` [Example 150, N-[2-(4-Chlorophenyl)ethyl]-N,9-dimethyl-8-oxo-2-(pyridin-4-yl)-8,9-dihydro-7H-purine-7-carboxamide]: the inhibition at 0.1 µM is 106%. Besides, under setting [2], the half-maximal inhibitory concentration (IC50) is less than 1 nM.

In the case of `CN(CCOc1ccc(Cl)cc1)C(=O)n1c(=O)n(C)c2nc(-c3ccncc3)ncc21` [Example 151, N-[2-(4-Chlorophenoxy)ethyl]-N,9-dimethyl-8-oxo-2-(pyridin-4-yl)-8,9-dihydro-7H-purine-7-carboxamide], the inhibition at 0.1 µM under setting [1] came to 102%. Moreover, under setting [2], the IC50 came to 0.5 nM.

On to `Cn1c(=O)n(C(=O)N2CCC(CCc3ccc(Cl)cc3)CC2)c2cnc(-c3ccncc3)nc21` [Example 152, 7-({4-[2-(4-Chlorophenyl)ethyl]piperidin-1-yl}carbonyl)-9-methyl-2-(pyridin-4-yl)-7,9-dihydro-8H-purine-8-one], for which the inhibition at 0.1 µM under setting [1] was found to be 102%. Besides, the half-maximal inhibitory concentration (IC50) under setting [2] worked out at 0.6 nM.

Regarding `CN(CCc1ccc(Cl)cc1)C(=O)n1c(=O)n(C)c2nc(C3CC3)ncc21` [Example 153, N-[2-(4-Chlorophenyl)ethyl]-2-cyclopropyl-N,9-dimethyl-8-oxo-8,9-dihydro-7H-purine-7-carboxamide], the inhibition at 0.1 µM under setting [1] came out at 99%. Under setting [2], the half-maximal inhibitory concentration (IC50) is 27 nM.

Turning to `CCCc1ncc2c(n1)n(C)c(=O)n2C(=O)N(C)CCc1ccc(Cl)cc1` [Example 154, N-[2-(4-Chlorophenyl)ethyl]-N,9-dimethyl-8-oxo-2-propyl-8,9-dihydro-7H-purine-7-carboxamide], the inhibition at 0.1 µM under setting [1] turned out to be 101%. Further, under setting [2], the IC50 stood at 2 nM.

`CCCCc1ncc2c(n1)n(C)c(=O)n2C(=O)N(C)CCc1ccc(Cl)cc1` [Example 155, 2-Butyl-N-[2-(4-chlorophenyl)ethyl]-N,9-dimethyl-8-oxo-8,9-dihydro-7H-purine-7-carboxamide]: the inhibition at 0.1 µM under setting [1] is 102%. Under setting [2], the IC50 was 4 nM.

Consider `CN(CCc1ccc(Cl)cc1)C(=O)n1c(=O)n(C)c2nc(C3CCCCC3)ncc21` [Example 156, N-[2-(4-Chlorophenyl)ethyl]-2-cyclohexyl-N,9-dimethyl-8-oxo-8,9-dihydro-7H-purine-7-carboxamide], for which, under setting [1], the inhibition at 0.1 µM amounted to 96%. For the same compound, the IC50 under setting [2] came to 10 nM.

For the compound `Cc1ncc2c(n1)n(C)c(=O)n2C(=O)N(C)CCc1ccc(Cl)cc1` [Example 157, N-[2-(4-Chlorophenyl)ethyl]-N,2,9-trimethyl-8-oxo-8,9-dihydro-7H-purine-7-carboxamide], the inhibition at 0.1 µM under setting [1] came to 103%. The IC50 under setting [2] was less than 10 nM.

In the case of `CN(CCc1ccc(Cl)cc1)C(=O)n1c(=O)n(C)c2nc(Cc3ccccc3)ncc21` [Example 158, 2-Benzyl-N-[2-(4-chlorophenyl)ethyl]-N,9-dimethyl-8-oxo-8,9-dihydro-7H-purine-7-carboxamide], the inhibition at 0.1 µM under setting [1] was determined as 102%. For the same compound, under setting [2], the IC50 is less than 1 nM.

Turning to `CCN(C)C(=O)n1c(=O)n(C)c2nc(C3CC3)ncc21` [Example 159], under setting [1], the inhibition at 0.1 µM was found to be 61%. Moreover, the IC50 under setting [2] stood at 81 nM.

The inhibition is the drop in the measured response relative to a control, in per cent. As usually defined, the IC50 is the midpoint of a concentration-inhibition curve.
